According to the supplement of paper PMC10307832:

Key:
Test in all cases: relative viability (nuclei count vs DMSO), 5 days (fraction); higher = more cells survive
[1] = compound: Cc1cc(Nc2cc(N3CCN(C)CC3)nc(Sc3ccc(NC(=O)C4CC4)cc3)n2)n[nH]1 [Tozasertib] + CS(=O)(=O)CCNCc1ccc(-c2ccc3ncnc(Nc4ccc(OCc5cccc(F)c5)c(Cl)c4)c3c2)o1 [Lapatinib] (partner 2 µM)
In short: (§1)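 Lung cancer cell lines, seeded in 1536-well plates, were treated the following day by pin tool with a single drug or with five library-drug doses (not always all listed) in √10 steps on top of a fixed anchor-drug dose. Cells were fixed and nuclei stained in one step after 5 days, and nuclei were counted. Relative viability is the nuclei count for treated wells divided by that for vehicle wells, reported as medians of duplicate plates.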

[2] = compound: Cc1cc(Nc2cc(N3CCN(C)CC3)nc(Sc3ccc(NC(=O)C4CC4)cc3)n2)n[nH]1 [Tozasertib] + CC(C)C[C@H](NC(=O)[C@H](Cc1ccccc1)NC(=O)c1cnccn1)B(O)O [Bortezomib] (partner 0.002 µM)
In short: as §1

[3] = compound: Cc1cc(Nc2cc(N3CCN(C)CC3)nc(Sc3ccc(NC(=O)C4CC4)cc3)n2)n[nH]1 [Tozasertib] + CS(=O)(=O)N1CCN(Cc2cc3nc(-c4cccc5[nH]ncc45)nc(N4CCOCC4)c3s2)CC1 [Pictilisib] (partner 1 µM)
In short: as §1

[4] = compound: Cc1cc(Nc2cc(N3CCN(C)CC3)nc(Sc3ccc(NC(=O)C4CC4)cc3)n2)n[nH]1 [Tozasertib] + COc1cc2c(Oc3ccc(NC(=O)C4(C(=O)Nc5ccc(F)cc5)CC4)cc3F)ccnc2cc1OCCCN1CCOCC1 [Foretinib] (partner 0.25 µM)
In short: as §1

[5] = compound: Cc1cc(Nc2cc(N3CCN(C)CC3)nc(Sc3ccc(NC(=O)C4CC4)cc3)n2)n[nH]1 [Tozasertib] + Cc1nc(NC(=O)N2CCC[C@H]2C(N)=O)sc1-c1ccnc(C(C)(C)C(F)(F)F)c1 [Alpelisib] (partner 2 µM)
In short: as §1

[6] = compound: Cc1cc(Nc2cc(N3CCN(C)CC3)nc(Sc3ccc(NC(=O)C4CC4)cc3)n2)n[nH]1 [Tozasertib] + CC1(C)CCC(c2ccc(Cl)cc2)=C(CN2CCN(c3ccc(C(=O)NS(=O)(=O)c4ccc(N[C@H](CCN5CCOCC5)CSc5ccccc5)c(S(=O)(=O)C(F)(F)F)c4)cc3)CC2)C1 [Navitoclax] (partner 0.5 µM)
In short: as §1

[7] = compound: Cc1cc(Nc2cc(N3CCN(C)CC3)nc(Sc3ccc(NC(=O)C4CC4)cc3)n2)n[nH]1 [Tozasertib] + C[C@@H](Oc1cc(-c2cnn(C3CCNCC3)c2)cnc1N)c1c(Cl)ccc(F)c1Cl [Crizotinib] (partner 1 µM)
In short: as §1

[8] = compound: Cc1cc(Nc2cc(N3CCN(C)CC3)nc(Sc3ccc(NC(=O)C4CC4)cc3)n2)n[nH]1 [Tozasertib] + O=C(c1cc(Cc2n[nH]c(=O)c3ccccc23)ccc1F)N1CCN(C(=O)C2CC2)CC1 [Olaparib] (partner 8 µM)
In short: as §1

[9] = compound: Cc1cc(Nc2cc(N3CCN(C)CC3)nc(Sc3ccc(NC(=O)C4CC4)cc3)n2)n[nH]1 [Tozasertib] + C[C@]1(O)C[C@@H](c2nc(-c3ccc4ccc(-c5ccccc5)nc4c3)c3c(N)nccn32)C1 [Linsitinib] (partner 1 µM)
In short: as §1

[10] = compound: Cc1cc(Nc2cc(N3CCN(C)CC3)nc(Sc3ccc(NC(=O)C4CC4)cc3)n2)n[nH]1 [Tozasertib]
In short: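 Five library-drug doses spaced by √10 were pinned onto vehicle-anchored 1536-well plates of lung cancer cell lines that had been kept overnight at 37 °C. Cells went 5 days without medium change, then were fixed, permeabilised and Hoechst-stained together, imaged at 4× and counted by MetaXpress. Viability is the ratio of treated-well to vehicle-well nuclei, taken as a median over plates. Plates required control CV below 25% and at least one doubling.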

[11] = compound: Cc1cc(Nc2cc(N3CCN(C)CC3)nc(Sc3ccc(NC(=O)C4CC4)cc3)n2)n[nH]1 [Tozasertib] + O=C(CCCCCCC(=O)Nc1ccccc1)NO [Vorinostat] (partner 1 µM)
In short: as §1

Cell Line | relative viability ([1]; first compound 0.004 µM) | relative viability ([1]; first compound 0.01265 µM) | relative viability ([1]; first compound 0.04 µM) | relative viability ([1]; first compound 0.1265 µM) | relative viability ([2]; first compound 0.004 µM) | relative viability ([2]; first compound 0.1265 µM) | relative viability ([3]; first compound 0.004 µM) | relative viability ([3]; first compound 0.01265 µM) | relative viability ([3]; first compound 0.04 µM) | relative viability ([3]; first compound 0.1265 µM) | relative viability ([4]; first compound 0.004 µM) | relative viability ([4]; first compound 0.01265 µM) | relative viability ([4]; first compound 0.04 µM) | relative viability ([4]; first compound 0.1265 µM) | relative viability ([5]; first compound 0.004 µM) | relative viability ([5]; first compound 0.01265 µM) | relative viability ([5]; first compound 0.04 µM) | relative viability ([5]; first compound 0.1265 µM) | relative viability ([6]; first compound 0.004 µM) | relative viability ([6]; first compound 0.01265 µM) | other results
Calu-6 | 1.17 | 0.983 | 1.08 | 0.293 | 0.987 | 0.391 | 0.946 | 0.862 | 0.781 | 0.259 | 0.946 | 0.903 | 0.69 | 0.229 | 1.19 | 0.96 | 0.797 | 0.402 | 0.85 | 0.88 | relative viability ([2]; first compound 0.01265 µM): 1.03; relative viability ([2]; first compound 0.04 µM): 1.08; relative viability ([6]; first compound 0.04 µM): 0.779; relative viability ([6]; first compound 0.1265 µM): 0.153; relative viability ([7]; first compound 0.004 µM): 0.796; relative viability ([7]; first compound 0.04 µM): 0.433; relative viability ([7]; first compound 0.1265 µM): 0.265; relative viability ([8]; first compound 0.004 µM): 0.557; relative viability ([8]; first compound 0.01265 µM): 0.516; relative viability ([8]; first compound 0.04 µM): 0.595; relative viability ([8]; first compound 0.1265 µM): 0.293; relative viability ([9]; first compound 0.004 µM): 0.952; relative viability ([9]; first compound 0.01265 µM): 0.853; relative viability ([9]; first compound 0.04 µM): 1; relative viability ([9]; first compound 0.1265 µM): 0.309; relative viability ([10]; 0.004 µM): 1.06; relative viability ([10]; 0.01265 µM): 0.953; relative viability ([10]; 0.04 µM): 0.998; relative viability ([10]; 0.1265 µM): 0.546
IA-LM | 0.967 | 0.838 | 1.13 | 0.479 | 0.794 | 0.849 | 0.336 | 0.302 | 0.457 | 0.265 | 1.38 | 1.18 | 1.11 | 0.914 | 0.715 | 0.753 | 0.871 | 0.457 | 0.969 | 0.784 | relative viability ([11]; first compound 0.04 µM): 0.855; relative viability ([11]; first compound 0.1265 µM): 0.854; relative viability ([6]; first compound 0.04 µM): 0.767; relative viability ([6]; first compound 0.1265 µM): 0.797; relative viability ([7]; first compound 0.004 µM): 0.784; relative viability ([7]; first compound 0.01265 µM): 1.05; relative viability ([7]; first compound 0.04 µM): 0.817; relative viability ([7]; first compound 0.1265 µM): 0.851; relative viability ([8]; first compound 0.004 µM): 0.976; relative viability ([8]; first compound 0.01265 µM): 0.909; relative viability ([8]; first compound 0.04 µM): 0.779; relative viability ([8]; first compound 0.1265 µM): 0.814; relative viability ([9]; first compound 0.004 µM): 0.697; relative viability ([9]; first compound 0.01265 µM): 0.564; relative viability ([9]; first compound 0.04 µM): 0.533; relative viability ([9]; first compound 0.1265 µM): 0.307; relative viability ([10]; 0.004 µM): 1.06; relative viability ([10]; 0.01265 µM): 0.819; relative viability ([10]; 0.04 µM): 0.954; relative viability ([10]; 0.1265 µM): 0.795
